{"source": "patent US20220193301A1", "about": "“CELL SUSPENSION AND USE THEREOF” (AVITA Medical, Inc., priority 2012, published 2022)", "system": "Primary Epidermal Keratinocytes (PEK), Normal, Human, Adult", "assay": "In vitro Scratch Assay of keratinocytes (with and without mitomycin c)", "format": "cell-based", "details": "media/control group, no hydrogel", "text": "1. Maintain stock cultures of Primary Epidermal Keratinocytes (PEK), Normal, Human, Adult cells in Dermal Cell Basal Medium supplemented with Keratinocyte Growth Kit and Gentamicin-Amphotericin B Solution (Complete Medium). Subculture the stock cultures of cells to 2.5×10^4 cells/ml (estimate) and re-feed with complete medium every 2 days or when a density of near confluence is reached. 2. To each well of a 24 well plate add appropriate test substances. Row A, Columns 1-3: blank, no cells, medium only. Row B, Columns 1-3: baseline, cells only, no coating. Row C-D, Columns 1-3 and Rows A-D, Columns 4-6: test substances at determined previously, in a serial dilution series as necessary. 3. Harvest cells and wash the PEK cells in Media by centrifugation at 150×g for 3 to5 minutes. 4. Determine cell number and viability (by trypan blue exclusion), and suspend the cells to a final concentration of 5×10^4 cells/ml in Media. 5. Dispense 600 μl of the cell suspension (30,000 cells) into all wells of the plate prepared in Step 2. 6. […]\nIn vitro Scratch Assay was performed according to the above protocol. […] In vitro re-epithelialization was documented by photography, and the amount of migration was manually quantified by computer-assisted image analysis. The data was expressed as a percentage of the area of the scratch filled by keratinocytes (FIG. 7). […]", "data": [{"smiles": "CO[C@@]12[C@H](COC(N)=O)C3=C(C(=O)C(C)=C(N)C3=O)N1C[C@@H]1N[C@@H]12", "note": "[MMC, mitomycin c]", "values": [{"measurement": "healing of the scratch, MMC+ cells compared to MMC− cells", "value": "delayed healing"}]}]}
